Where two headings read alike, the source gives them in different places. Where a SMILES comes first, the peptide text is derived from it. Where no end group is shown, it is not given here. [ ]: non-standard residue; d: D form. The star is where a group is joined. For = O=C*
B1: WKYMVm (peptide)
peptide: WKYMV[dM]
notes: the last residue is the D form; the bought peptide is probably also an amide (surmise); source: bought: Tocris

Experiments:
Mm_Fpr1 [1] = target: T1, Mm_Fpr1 (Mus musculus, UniProt P33766); assay: Competition binding of fluorescent WKYMVm, flow cytometry; settings: for Log IC50 (M): log of IC50, competition with 10 nM K(5/6-FAM)-WKYMVm, HEK293 stable cells, on ice 90 min; for Log IC50 (M) / Max Comp (%): mean, ND = no competition observed; for Max Comp (%): maximum proportion of competition with 10 nM K(5/6-FAM)-WKYMVm
T1 construct: expressed in transfected cells
T1 sequence (P33766 1-364): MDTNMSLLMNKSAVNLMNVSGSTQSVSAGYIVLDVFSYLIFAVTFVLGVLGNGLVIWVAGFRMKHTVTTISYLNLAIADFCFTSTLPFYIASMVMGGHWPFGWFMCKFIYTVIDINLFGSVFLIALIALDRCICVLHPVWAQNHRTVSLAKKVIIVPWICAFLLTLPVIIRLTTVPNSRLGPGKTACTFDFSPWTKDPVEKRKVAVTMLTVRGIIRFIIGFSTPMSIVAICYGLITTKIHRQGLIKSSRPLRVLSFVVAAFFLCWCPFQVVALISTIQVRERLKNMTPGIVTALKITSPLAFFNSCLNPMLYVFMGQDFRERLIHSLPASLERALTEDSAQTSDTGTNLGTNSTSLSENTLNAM
Description: (§1) Mean cell fluorescence was then measured for 5000 cells by flow cytometry using either a BD FACScalibur or BD Attune.
(§2) All data were analyzed using GraphPad Prism using the nonlinear regression log(agonist) versus response (3 parameters) function for all assays, except binding, which was analyzed using the One site-FitlogIC50 function. Bias calculations were carried out following IUPHAR guidelines as described,[27]^,[37] and data were presented as the Δ Activity ratio (Log[EmaxB/EC50B])-(Log[EmaxA/EC50A]).

Mm_Fpr2 [2] = target: T2, Mm_Fpr2 (Mus musculus, UniProt O88536); assay: as above; settings: for Log IC50 (M): log of IC50, competition with 10 nM K(5/6-FAM)-WKYMVm, HEK293 stable cells, on ice 90 min; for Log IC50 (M) / Max Comp (%): mean, ND = no competition observed; for Max Comp (%): maximum proportion of competition with 10 nM K(5/6-FAM)-WKYMVm
T2 construct: expressed in transfected cells
T2 sequence (O88536 1-351): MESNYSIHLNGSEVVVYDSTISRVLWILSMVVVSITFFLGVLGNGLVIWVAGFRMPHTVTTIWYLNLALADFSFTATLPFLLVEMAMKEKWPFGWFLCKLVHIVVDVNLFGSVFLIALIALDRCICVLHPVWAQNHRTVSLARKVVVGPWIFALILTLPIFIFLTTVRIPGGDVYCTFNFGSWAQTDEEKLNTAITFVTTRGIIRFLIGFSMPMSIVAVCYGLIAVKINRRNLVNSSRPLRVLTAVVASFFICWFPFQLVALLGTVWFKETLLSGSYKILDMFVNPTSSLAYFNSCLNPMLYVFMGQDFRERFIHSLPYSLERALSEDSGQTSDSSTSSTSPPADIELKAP
Description: as §1, §2

Hs_FPR1 = target: T3, Hs_FPR1 (Homo sapiens, UniProt P21462); assay: BRET receptor-RLuc8 interaction with Venus-mGsi; type: cell-based; settings: for Log EC50 (M): log of EC50, HEK293 transient, 10 min; for Log EC50 (M) / Emax (%): mGsi BRET, mean, ND = no interaction detected; for Emax (%): % of response to 1 μM WKYMVm
T3 construct: expressed in transfected cells
T3 sequence (P21462 1-350): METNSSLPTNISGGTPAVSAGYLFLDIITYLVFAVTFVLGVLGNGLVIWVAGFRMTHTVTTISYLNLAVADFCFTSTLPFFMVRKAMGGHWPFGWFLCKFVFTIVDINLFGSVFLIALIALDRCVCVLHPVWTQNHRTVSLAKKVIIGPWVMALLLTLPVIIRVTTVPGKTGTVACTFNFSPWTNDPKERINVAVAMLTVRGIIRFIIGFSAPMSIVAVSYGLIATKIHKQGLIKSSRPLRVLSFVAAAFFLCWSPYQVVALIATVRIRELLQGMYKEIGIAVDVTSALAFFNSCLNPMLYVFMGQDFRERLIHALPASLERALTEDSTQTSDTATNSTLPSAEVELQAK
Summary of the method: (§3)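 Receptor-RLuc8 and acceptor plasmids (Venus-mGsi or YFP-Arrestin 3, 1:4) are transfected; cells are replated after 24 h and grown 24–48 h more. Wells are equilibrated 30 min in HBSS, given coelenterazine h (5 μM final), dosed with compound 5 min later and held 10 min at 37 °C before the BRET read.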

Mm_Fpr1 [3] = target: T1, Mm_Fpr1; assay: BRET receptor-RLuc8 interaction with Venus-mGsi; type: cell-based; settings: for Log EC50 (M): log of EC50, HEK293 transient, 10 min; for Log EC50 (M) / Emax (%): mGsi BRET, mean, ND = no interaction detected; for Emax (%): % of response to 1 μM WKYMVm
Summary of the method: as §3

Mm_Fpr2 [4] = target: T2, Mm_Fpr2; assay: BRET receptor-RLuc8 interaction with Venus-mGsi; type: cell-based; settings: for Log EC50 (M): log of EC50, HEK293 transient, 10 min; for Log EC50 (M) / Emax (%): mGsi BRET, mean, ND = no interaction detected; for Emax (%): % of response to 1 μM WKYMVm
Summary of the method: as §3

Mm_Fpr1 [5] = target: T1, Mm_Fpr1; assay: ERK1/2 phosphorylation by Western blotting; type: cell-based; set-up: Emax: dose or concentration left out as unconfirmed; settings: for Log EC50 (M) / EC50: log of EC50, phosphorylation of ERK1/2, HEK293 stable cells; for Log EC50 (M) / Emax (%) / EC50: mean, ND = no pERK signal detected; for Emax (%): phospho-ERK, % of 1 μM WKYMVm
FPR2 = settings: read-out: EC50 arrestin recruitment, Pathhunter, cited from earlier work
[6] = target: T4, FLAG-tagged mouse Fpr2 (Mm_Fpr2) (mouse, UniProt O88536 1-351); assay: cell-based or functional assay
T4 sequence (looked up): T2 sequence (O88536 1-351)

[7] = target: T5, FLAG-tagged human FPR1 (Hs_FPR1) (human, UniProt P21462 1-350); assay: cell-based or functional assay
T5 sequence (looked up): T3 sequence (P21462 1-350)

[8] = target: T6, FLAG-tagged human FPR2 (Hs_FPR2) (human, UniProt P25090 1-351); assay: cell-based or functional assay
T6 sequence (looked up): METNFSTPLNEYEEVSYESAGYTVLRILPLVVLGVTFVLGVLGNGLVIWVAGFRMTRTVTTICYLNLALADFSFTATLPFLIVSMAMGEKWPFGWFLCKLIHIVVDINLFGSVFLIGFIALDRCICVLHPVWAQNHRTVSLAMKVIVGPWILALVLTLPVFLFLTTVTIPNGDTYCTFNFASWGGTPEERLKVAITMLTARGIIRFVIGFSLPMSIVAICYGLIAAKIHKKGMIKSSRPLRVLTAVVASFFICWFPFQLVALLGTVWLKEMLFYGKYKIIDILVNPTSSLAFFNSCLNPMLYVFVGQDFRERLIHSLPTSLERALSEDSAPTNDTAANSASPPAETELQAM

Molecule	Log IC50 (M) (Mm_Fpr1 [1])	Max Comp (%) (Mm_Fpr1 [1])	Log IC50 (M) (Mm_Fpr2 [2])	Max Comp (%) (Mm_Fpr2 [2])	Log EC50 (M) (Hs_FPR1)	Emax (%) (Hs_FPR1)	Log EC50 (M) (Mm_Fpr1 [3])	Emax (%) (Mm_Fpr1 [3])	Log EC50 (M) (Mm_Fpr2 [4])	Emax (%) (Mm_Fpr2 [4])	Log EC50 (M) (Mm_Fpr1 [5])	Emax (%) (Mm_Fpr1 [5])	IC50 (Mm_Fpr1 [1]) [nM]	IC50 (Mm_Fpr2 [2]) [nM]	EC50 (Hs_FPR1) [nM]	Emax (Hs_FPR1) [%]	EC50 (Mm_Fpr1 [3]) [nM]	Emax (Mm_Fpr1 [3]) [%]	Emax (Mm_Fpr2 [4]) [%]	Emax (Mm_Fpr1 [5]) [%]	also measured
Cc1cccc(-c2oc(C)nc2C(=O)Nc2cnn(Cc3nc(C(C)(F)F)co3)n2)c1 [ACT-389949]	−7.070	25.96	−7.192	80.31	−6.47	60.56	−5.74	49.76	−7.57	116.06	−6.383	99.504									EC50 (FPR2; FPR2): 20 nM
COc1cc(F)c([C@@H]2CNC(=O)[C@H]2NC(=O)Nc2ccccc2)c(F)c1 [BMS-986235]		37.54		78.55									1120	72.6	2240	7.4	1410	21.7	104	114	EC50 (Mm_Fpr2 [4]): 166 nM; EC50 (Mm_Fpr1 [5]): 982 nM; EC50 (FPR2; Hs_FPR2): 130 nM
CCCCOc1ccc(C(=O)NN2C(=O)c3ccccc3NC2c2ccc(OC)cc2)cc1 (stereo not drawn) [QuinC1]	−6.114	52.13	−7.98	27.99	−5.34	17.60	−7.49	30.89	−6.35	70.36	−6.945	150.3									
CSCC[C@H](NC(=O)[C@H](Cc1ccc(O)cc1)NC(=O)[C@H](CCCCN)NC(=O)[C@@H](N)Cc1c[nH]c2ccccc12)C(=O)N[C@H](C(=O)N[C@H](CCSC)C(N)=O)C(C)C [WKYMVm]																112		109	103	102	
CSCC[C@H](NC=O)C(=O)N[C@@H](CC(C)C)C(=O)N[C@@H](Cc1ccccc1)C(=O)N[C@@H](CCCCN)C(=O)O [fMLFK, fMet-Leu-Phe-Lys] (For-MLFK-OH)		72.44		30.81									8260	828	85.1	104	9550	62.9	82.7	140	EC50 (Mm_Fpr2 [4]): 30200 nM; EC50 (Mm_Fpr1 [5]): 851 nM
B1																					receptor internalization (flow cytometry): Emax (% of 1 μM WKYMVm) [6]: 102%; receptor internalization (flow cytometry): Log EC50 (M) [6]: -7.66 log M; receptor internalization (flow cytometry): Emax (% of 1 μM WKYMVm) [7]: 106%; receptor internalization (flow cytometry): Log EC50 (M) [7]: -7.49 log M; receptor internalization (flow cytometry): Emax (% of 1 μM WKYMVm) [8]: 97.5%; receptor internalization (flow cytometry): Log EC50 (M) [8]: -8 log M

— article PMC12881670, “Investigation into ligand selectivity and bias at the formyl peptide receptor family” (The Journal of Pharmacology and Experimental Therapeutics, 2025)
